Reference: patent US9326539B2, “Compositions comprising dietary fat complexers and methods for their use” (Soho Flordis International Pty. Ltd., priority 2002, dated 2016)

Test: in vitro study of vegetable oil, water and cyclodextrin: band of wax-like complex
Format: physicochemical
Settings: vegetable oil 4 g, water 6 g, varying amounts of cyclodextrin (100-2,000 mg), centrifuged
Method: FIG. 9A-9C depicts the results of an in vitro study of vegetable oil (4 g), water (6 g) (with added food coloring for contrast) and varying amounts of (A) α-cyclodextrin (100-2,000 mg, right to left), (B) β-cyclodextrin or (C) γ-cyclodextrin. A band of “wax-like” material layered between the oil and aqueous phases is apparent in the tubes. […] Note the increasing size (right to left) of a white layer of un-reacted α-cyclodextrin in the bottom of the tubes. This material is displaced from solution by either the oil or the α-cyclodextrin-oil complex. These tubes were centrifuged in order to improve the definition of the layers. The “wax-like” complex is of such a consistency that all of the tubes except for the furthest two to the right can be inverted without leakage of the aqueous phase around the complex.
FIGS. 9A-9C depict the results of an in vitro study of vegetable oil (4 g), water (6 g) (with added food coloring for contrast) and varying amounts of (A) α-cyclodextrin (100-2,000 mg, right to left), (B) β-cyclodextrin or (C) γ-cyclodextrin. A band of “wax-like” material layered between the oil and aqueous phases is apparent in the tubes. […] Note the increasing size (right to left) of a white layer of un-reacted α-cyclodextrin in the bottom of the tubes. This material is displaced from solution by either the oil or the α-cyclodextrin-oil complex. These tubes were centrifuged in order to improve the definition of the layers. The “wax-like” complex is of such a consistency that all of the tubes in 9A except for the furthest two to the right can be inverted without leakage of the aqueous phase around the complex.
Thus one would not have expected α-cyclodextrin to complex triglyceride molecules because the molecules would not fit within the pore of the α α-cyclodextrin. […] The white substance in the bottom of the tubes is precipitated cyclodextrin.

| band of wax-like material (complexed fat) between oil and aqueous phases | SMILES |
| --- | --- |
| bearly noticeable | OC[C@H]1O[C@@H]2O[C@H]3[C@H](O)[C@@H](O)[C@@H](O[C@H]4[C@H](O)[C@@H](O)[C@@H](O[C@H]5[C@H](O)[C@@H](O)[C@@H](O[C@H]6[C@H](O)[C@@H](O)[C@@H](O[C@H]7[C@H](O)[C@@H](O)[C@@H](O[C@H]8[C@H](O)[C@@H](O)[C@@H](O[C@H]9[C@H](O)[C@@H](O)[C@@H](O[C@H]1[C@H](O)[C@H]2O)O[C@@H]9CO)O[C@@H]8CO)O[C@@H]7CO)O[C@@H]6CO)O[C@@H]5CO)O[C@@H]4CO)O[C@@H]3CO [γ-cyclodextrin] |
| significantly less | OC[C@H]1O[C@@H]2O[C@H]3[C@H](O)[C@@H](O)[C@@H](O[C@H]4[C@H](O)[C@@H](O)[C@@H](O[C@H]5[C@H](O)[C@@H](O)[C@@H](O[C@H]6[C@H](O)[C@@H](O)[C@@H](O[C@H]7[C@H](O)[C@@H](O)[C@@H](O[C@H]8[C@H](O)[C@@H](O)[C@@H](O[C@H]1[C@H](O)[C@H]2O)O[C@@H]8CO)O[C@@H]7CO)O[C@@H]6CO)O[C@@H]5CO)O[C@@H]4CO)O[C@@H]3CO [β-cyclodextrin] |
